Reference: paper PMC12583827, “Harnessing microbial-derived metabolites in the urinary tract to prevent infection induced catheter encrustation” (Nature Communications, 2025)
Entries after “also recorded” stand apart in the source; their conditions may differ. Structures can show the parent of a compound that is named as a salt. Where two headings read alike, the source gives them in different places.

Legend:
P. mirabilis urease [1] = biological target: T1, P. mirabilis urease (Proteus mirabilis, UniProt P17086); type: cell-based; conditions: for Compound 1 %I alone: kphos
T1 construct: it utilizes whole bacterial cells, rather than isolated enzyme preparations; endogenous in cells; host or cells: Proteus mirabilis HI4320, live whole cells
T1 sequence (P17086 whole entry): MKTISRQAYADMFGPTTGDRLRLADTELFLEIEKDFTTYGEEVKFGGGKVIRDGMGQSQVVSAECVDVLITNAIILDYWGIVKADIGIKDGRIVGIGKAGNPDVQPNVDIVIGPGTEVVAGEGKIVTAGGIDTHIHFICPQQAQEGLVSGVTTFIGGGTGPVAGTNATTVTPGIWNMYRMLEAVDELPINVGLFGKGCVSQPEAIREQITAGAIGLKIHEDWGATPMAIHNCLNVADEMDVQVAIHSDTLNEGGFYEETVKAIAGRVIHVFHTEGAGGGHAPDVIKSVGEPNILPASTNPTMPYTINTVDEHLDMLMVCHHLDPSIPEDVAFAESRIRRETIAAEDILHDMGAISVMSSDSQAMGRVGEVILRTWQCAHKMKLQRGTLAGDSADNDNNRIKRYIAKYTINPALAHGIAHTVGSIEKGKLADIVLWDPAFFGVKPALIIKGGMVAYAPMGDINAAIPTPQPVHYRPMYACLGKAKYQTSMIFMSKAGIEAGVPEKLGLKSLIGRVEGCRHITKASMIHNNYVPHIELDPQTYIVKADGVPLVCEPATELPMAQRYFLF
T1 sequence (P17088 whole entry, further chain): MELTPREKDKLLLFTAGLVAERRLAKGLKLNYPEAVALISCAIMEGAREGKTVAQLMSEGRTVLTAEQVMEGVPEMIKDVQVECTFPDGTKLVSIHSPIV
T1 sequence (P17087 whole entry, further chain): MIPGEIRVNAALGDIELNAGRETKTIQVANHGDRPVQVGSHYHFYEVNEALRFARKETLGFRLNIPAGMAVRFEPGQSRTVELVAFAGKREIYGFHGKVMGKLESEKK
Experimental: To assess the synergistic effects of dampening metabolites when used in combination with each other, P. mirabilis urease activity was measured as described above. Between 4-6 different concentrations for each dampening metabolite were tested both alone and in combination (See Fig. 6a for example). […] To account for variability between experiments, all conditions tested were performed on a single 96-well plate with three technical replicates for each condition. To compare between biologic replicates, percent inhibition relative to untreated P. mirabilis was calculated for each condition using the average area under the curve over 120-180 minutes (so that the positive control activity curve saturated without any increase in the negative control curve).
Statistical analysis was conducted using a one sample T test of the combination index compared to a hypothetical value of 1 (additive effect). […] Therefore, combination indexes were calculated using a desired effect size less than 40% were indicated with an * in Fig. 6b and in Supplementary Data 5.

P. stuartii urease = assay: Urease activity assay, whole cell P. stuartii BE2467; type: cell-based, Providencia stuartii
Experimental: (§1) Urease activity was measured as described previously in triplicate with at least three biological replicates[21]. Briefly, bacteria were cultured for ~18 h in LB broth, concentrated to an OD600 of 4, washed once in saline, and diluted (1:10 for P. mirabilis and 1:50 for P. stuartii and M. morganii) into candidate dampening metabolites in potassium phosphate buffer or human urine pH7 and supplemented with 500 mM urea and 0.01% phenol red. Bacterial suspensions were distributed into a 96-well plate, incubated at 37 °C with double-orbital shaking in a Synergy H1 plate reader (BioTek), and absorbance (OD562) was measured every 60 seconds for 180 minutes. Isogenic urease mutants (Supplementary Data 1) served as negative controls for P. mirabilis and P. stuartii and a vehicle control served as a negative control for M. morganii.

[2] = tested on: P. mirabilis urease operon (ureABC, ureEDF); assay: Real-time quantitative PCR of urease operon; type: cell-based, Proteus mirabilis; conditions: 15-minute incubation, 500 mM urea
Experimental: P. mirabilis was cultured for ~18 h in LB broth and then sub cultured until it reached mid-log growth phase (OD600 0.2-0.5). Cultures were spun down to pellet at 10,000 rcf for 10 minutes and resuspended in saline to a final OD600 of 1.0. Cultures were then diluted 1:10 into dampening metabolites buffered 1:10 in potassium phosphate buffer pH7 and supplemented with 500 mM urea. P. mirabilis in potassium phosphate buffer without urea served as a negative control. Cultures were incubated in potassium phosphate buffer with and without dampening metabolites at 37 °C with shaking for 15 minutes. RNA isolation, cDNA synthesis and RT qPCR were performed as described previously. […] A RNA integrity analysis using agarose gel electrophoresis on extracted RNA was performed for all samples to confirm no change in transcript stability (Supplementary Fig 16A). The data were analyzed according to the Relative Quantification (RQ) method by Pfaffl et al. 2001[54] (See Supplementary Information).
168 Real-time quantitative PCR analysis. The data were analyzed according to the Relative
169 Quantification (RQ) method by Pfaffl et al 2001 (56) in which P. mirabilis potassium phosphate
170 buffer without urea was considered as the ‘Control’ and P. mirabilis in potassium phosphate
171 buffer supplemented with 500mM urea with and without candidate dampening compounds were
172 the ‘Sample.’ The full equation is below.
(E )ΔCPtarget (control−sample)
174 Relative Quantification Ratio = target Equation 2
(Ereference)ΔCPreference (control−sample)
176 In this equation, E refers to the primer efficiency of the target gene (Etarget, urease operon
177 subunits) or the reference gene (Ereference, rpoA), and CP refers to the Cycle Point, or the cycle
178 number at which the signal exceeds the threshold. […]
183 for whole genome sequencing on the Illumina NextSeq2000 platform. Read trimming, and run
184 analytics were performed using Trimmomatic v0.39.0 (62). The processed reads were assembled
185 using spades v3.15.5 (63) wrapped in Unicycler v0.5.0 (64, 65). Read mapping was done using […]

M. morganii urease = assay: Urease activity assay, whole cell M. morganii TA43; type: cell-based, Morganella morganii
Experimental: as §1

Jack Bean Urease (JBU) = biological target: T2, Jack Bean Urease (JBU) (Canavalia ensiformis, UniProt P07374); type: biochemical; conditions: 0.1 U JBU, 500 mM urea
T2 construct: purchased Sigma-Aldrich
T2 sequence (P07374 whole entry, looked up): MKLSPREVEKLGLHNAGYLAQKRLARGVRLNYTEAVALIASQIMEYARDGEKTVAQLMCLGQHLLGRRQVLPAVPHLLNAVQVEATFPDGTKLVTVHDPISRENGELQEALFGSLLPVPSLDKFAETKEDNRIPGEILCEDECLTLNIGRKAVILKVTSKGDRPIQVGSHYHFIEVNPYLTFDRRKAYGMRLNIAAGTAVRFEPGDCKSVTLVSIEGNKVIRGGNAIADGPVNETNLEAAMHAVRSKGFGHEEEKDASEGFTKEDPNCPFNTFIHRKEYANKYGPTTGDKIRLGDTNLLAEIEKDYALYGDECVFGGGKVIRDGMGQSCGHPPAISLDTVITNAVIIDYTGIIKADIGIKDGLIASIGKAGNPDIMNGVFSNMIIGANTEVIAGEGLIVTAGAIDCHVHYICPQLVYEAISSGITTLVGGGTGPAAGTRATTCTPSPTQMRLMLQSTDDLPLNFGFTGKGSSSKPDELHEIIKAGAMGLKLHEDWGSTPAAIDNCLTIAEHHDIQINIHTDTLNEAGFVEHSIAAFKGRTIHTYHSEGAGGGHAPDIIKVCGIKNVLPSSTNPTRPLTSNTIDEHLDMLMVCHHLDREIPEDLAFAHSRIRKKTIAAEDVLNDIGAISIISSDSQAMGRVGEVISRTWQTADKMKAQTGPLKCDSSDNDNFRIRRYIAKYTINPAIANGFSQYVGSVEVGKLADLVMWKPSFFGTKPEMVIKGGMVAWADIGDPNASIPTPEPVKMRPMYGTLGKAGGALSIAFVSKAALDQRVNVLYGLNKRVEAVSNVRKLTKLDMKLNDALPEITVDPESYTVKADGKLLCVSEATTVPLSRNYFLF
Experimental: To measure Jack Bean urease activity, the previously described assay was modified such that 0.1 U (1U liberates 1 µmol of ammonia from urea per minute) of JBU (Sigma-Aldrich urease from Canavalia ensiformis) were distributed into a 96-well plate in place of the bacterial suspensions. Acetohydroxamic acid (AHA), was used as a positive control and a vehicle control was used as a negative control. Percent of maximum urease activity was calculated using Area Under the Curve (AUC) relative to untreated bacteria of interest or untreated JBU. Urease activity measurement in MRSA was adapted from a recently published semi quantitative assay (See Supplementary materials for details)[48].
414 Supplementary Figure 13. Microbial metabolites dampen activity of purified Jack Bean
415 Urease (JBU). 0.1 U of JBU (1U liberates 1 µmol of ammonia from urea per minute) was
416 incubated at 37 °C with shaking in urease-dampening metabolites, 500mM urea, and phenol red.
417 A urea analogue, AHA, served as the positive control for inhibition of JBU. Absorbance
418 (OD562) was measured every 60 seconds for 90 minutes, and activity is expressed as percent of
419 maximum activity (% Max Activity) relative to untreated JBU. Graphs show mean±SD for 3
420 independent experiments with 3 technical replicates each. Data were analyzed by two tailed one
421 sample t-test to a hypothetical value of 100% activity. ***P<0.001, **P<0.002, *P<0.033.
(1 picture or pasted object on this page, not shown here)

P. mirabilis urease [3] = biological target: T1, P. mirabilis urease; type: cell-based; conditions: for Urease dampening activity: screen of candidate metabolites, highest concentration tested 20mM, * Trending but not statistically significant
Experimental: as §1

UTI MRSA urease = UTI MRSA urease activity assay; type: cell-based, Staphylococcus aureus; conditions: whole cell, urease broth
Experimental: 190 Omega and visualization was carried out using ESPript 3.0 (69), enabling comparison across
191 different clinical isolates. Urease genes, including the full operon from ureA to ureR, were
192 identified and extracted from the prokka annotated genomes. The extracted protein sequences
193 were subjected to sequence alignment using Clustal Omega and visualization was carried out
194 using ESPript 3.0 [8], enabling comparison across different clinical isolates.
195 UTI MRSA urease activity assay. The UTI MRSA urease assay was adapted from a recently-
196 published semi quantitative assay to measure urease activity in bacterial species with low overall
197 activity under standard conditions (50). Dampening metabolites were directly dissolved in urease
198 broth (1 g tryptone (RPI; CAS No. 91079-40-2), 1 g D(+)-glucose (RPI; CAS No. 50-99-7), 2 g
199 potassium phosphate monobasic anhydrous (VWR; Lot: 20C1356567), 5 g sodium chloride
201 of MilliQ water, pH 5.5, sterilized via autoclaving). UTI MRSA strains from overnight cultures
202 were harvested by centrifugation for 5 minutes at 10,000 g, washed with 1 volume of 1X
203 Phosphate Buffered Saline (PBS), and resuspended in urease broth. Bacterial cultures were […]
205 measured at 415 nm, 560 nm, and 600 nm every 20 mins for 24 hours, shaking at 37°C using a
206 BioTek Synergy|H1 microtiter plate reader. Urease activity was calculated by dividing the OD […]

[4] = tested on: P. mirabilis catheter biofilms; assay: Antibiotic testing in the in vitro “bladder” model; type: cell-based, Proteus mirabilis; conditions: 1ug/mL ceftriaxone added at 24 h
Experimental: The glass “bladder” system assembly, inoculation and sample collection were performed as described above. At 24 h post inoculation glass “bladders” were supplied with media containing the same metabolite (or AUM only control) with or without 1 µg/mL ceftriaxone sodium salt hydrate (Cayman Chemical Company, Michigan, USA). Samples were then collected from the catheter port at 27, 30, 33, 36 and 48 h to monitor pH and bacterial CFUs. After 48 h, the catheters were carefully removed, sectioned and assessed for bacterial viability as detailed in Supplementary Methods.

urease operon (ureR) = tested on: urease operon (ureR); design: method as in PMID 31921010; conditions: cited from earlier work
[5] = Buffering capacity assay (NaOH titration, phenol red); type: physicochemical; conditions: high concentrations of metabolite in potassium phosphate buffer with phenol red
Experimental: Known concentrations of sodium hydroxide were added to each well of a 96 well plate in combination with candidate dampening metabolite of interest buffered 1:10 in potassium phosphate buffer pH7. 0.01% phenol red was added to each well, and absorbance (OD562) was measured in a Synergy H1 plate reader (BioTek).

[6] = biological target: T3, urease of P. mirabilis HI4320 cell free extracts (Proteus mirabilis, UniProt P17086); type: biochemical
T3 construct: 20ul of cell-free extract were distributed into a 96-well plate in place of the whole cell bacterial suspensions; endogenous in cells; host or cells: Proteus mirabilis HI4320, urea-induced; freeze-thaw and sonication lysate, clarified supernatant
T3 sequence (P17088 whole entry): as the sequence (P17088 whole entry, further chain) above
T3 sequence (P17086 whole entry): as the sequence (P17086 whole entry) above
T3 sequence (P17087 whole entry, further chain): as the sequence (P17087 whole entry, further chain) above
Experimental: To measure urease activity of the cell free extracts of P. mirabilis, P. mirabilis was cultured for ~18 h in LB broth and then sub cultured until it reached mid-log growth phase (OD600 0.2-0.5). Cultures were spun down to pellet at 10,000 rcf for 10 minutes and resuspended in saline to a final OD600 of 1.0. Cultures were then diluted 1:10 in potassium phosphate buffer pH7 supplemented with 500 mM urea and incubated at 37 °C with shaking for 1 h to induce its urease enzyme production. The isogenic urease mutant Pm ureF::kan (Supplementary Data 1) served as negative control. Cultures then were spun down to pellet at 10,000 rcf for 10 minutes and resuspended in 2 mL saline. Cultures were subjected to four cycles of freezing in liquid nitrogen and thawing in a 37 °C water bath. Cultures were then probe sonicated (on ice) at 25% amplitude for 10 sec. Sonicated cultures were centrifuged at 18,900 Xg for 5 min and supernatants were transferred to a clean tube and stored on ice. To measure urease activity of cell free extracts, the previously described assay was modified such that 20ul of cell-free extract were distributed into a 96-well plate in place of the whole cell bacterial suspensions. Acetohydroxamic acid (AHA), was used as a positive control. Percent of maximum urease activity was calculated using Area Under the Curve (AUC) relative to untreated cell free extracts of P. mirabilis.

[7] = biological target: T4, urease of P. mirabilis cell free extracts (Proteus mirabilis, UniProt P17086); type: biochemical
T4 construct: 20ul of cell-free extract were distributed into a 96-well plate in place of the whole cell bacterial suspensions; endogenous in cells; host or cells: Proteus mirabilis HI4320, urea-induced; freeze-thaw and sonication lysate, clarified supernatant
T4 sequence (P17086 whole entry): as the sequence (P17086 whole entry) above
T4 sequence (P17088 whole entry, further chain): as the sequence (P17088 whole entry, further chain) above
T4 sequence (P17087 whole entry, further chain): as the sequence (P17087 whole entry, further chain) above
Experimental: For the kinetic analysis of the urease reaction in the presence of urease dampening metabolites, urease activity assays were repeated with the P. mirabilis cell free extracts. Six different inhibitor concentrations that gave linear rates of reaction over a period of 120 min were tested for their effects on urease activity in the presence of urea concentrations ranging from 0 to 500 mM. Simple linear regression was performed on the absorbance (OD562) over 120 minutes for each condition and plotted as Initial velocity (slope) vs urea concentration. These initial hyperbolic plots were converted to double-reciprocal Lineweaver-Burke plots, and the pattern of inhibition inferred from the point of intersection of the lines. Finally, the Ki for a particular compound was determined by plotting the Km/Vmax ratio (the slope of the Lineweaver-Burke plots) of each line as a function of the inhibitor concentration as described by ref. [49]. The X-intercept corresponded to –Ki.

[8] = tested on: Helicobacter pylori urease; design: method as in earlier work; conditions: cited from earlier work
P. mirabilis urease [9] = tested on: P. mirabilis urease; design: method as in PMID 8494373; conditions: limited concentrations tested; cited from earlier work

Molecule: O=C(O)C(=O)Cc1ccccc1 [phenylpyruvate, Sodium phenylpyruvate monohydrate]
- concentrations required to achieve a significant combination index (P. mirabilis urease [1]): > 50 mM
- urease activity in P. stuartii (P. stuartii urease): no activity
- ureE and ureF transcript levels [2]: modestly increased
- urease activity in M. morganii (M. morganii urease): no activity
- JBU activity (Jack Bean Urease (JBU)): did not inhibit; also recorded: no activity
- effect on P. mirabilis urease activity (whole cell) (P. mirabilis urease [3]; potassium phosphate buffer, dose response): reproducibly decreased; also recorded: only modest activity
- Urease dampening activity (P. mirabilis urease [3]): Yes
- urease activity in MRSA (UTI MRSA urease): most potent urease inhibition

Molecule: CO/N=C(\C(=O)N[C@@H]1C(=O)N2C(C(=O)O)=C(CSc3nc(=O)c(=O)[nH]n3C)CS[C@H]12)c1csc(N)n1 [ceftriaxone, ceftriaxone sodium salt hydrate]
- AUM pH compared to the control “bladder” [4]: no impact on pH
- reduction in CFU/mL by the end of the experiment ([4]; effluent, 48 h): 3 log

Molecule: 2-Hydroxy-4-methoxybenzaldehyde
- urease operon expression (urease operon (ureR)): reduce urease operon expression

Molecule: O=C(O)[C@@H](O)Cc1cnc[nH]1 [L-imidazole lactate, L-imidazolelactic acid]
- Compound 1 %I alone (P. mirabilis urease [1]; Compound 1 [] alone 25, assay date 2024 08 07): 36.6%
- Compound 1 %I alone (P. mirabilis urease [1]; Compound 1 [] alone 37.5, assay date 2024 08 09): 56.9%
- Compound 1 %I alone (P. mirabilis urease [1]; Compound 1 [] alone 50, assay date 2024 08 07): 58.1%
- buffering capacity: absorbance (OD562) across NaOH concentrations [5]: consistent reduction in absorbance compared to the control
- urease activity of cell free P. mirabilis extracts [6]: at least partially inhibiting
- change of estimated Km on addition of metabolite [7]: increase
- change of estimated Vmax on addition of metabolite [7]: decrease
- type of urease inhibition ([7]; Michaelis-Menten parameters, Lineweaver-Burke plot): mixed inhibitors
- JBU activity (Jack Bean Urease (JBU)): inhibited
- Urease dampening activity (P. mirabilis urease [3]): Yes

Molecule: Cc1c(OCC(F)(F)F)ccnc1C[S+]([O-])c1nc2ccccc2[nH]1 (stereo not shown) [lansoprazole]
- Helicobacter pylori urease activity [8]: inhibit
- P. mirabilis urease activity (P. mirabilis urease [9]): did not inhibit

Molecule: COc1ccc2[nH]c([S+]([O-])Cc3ncc(C)c(OC)c3C)nc2c1 (stereo not shown) [Omeprazole]
- Helicobacter pylori urease activity [8]: inhibit
- P. mirabilis urease activity (P. mirabilis urease [9]): did not inhibit
